Experimental data reported in patent US20230128252A1, “PHARMACEUTICAL COMPOSITIONS” (Shenzhen Pharmacin Co., Ltd., priority 2020, published 2023).
Converted amounts (≈) assume the structure as drawn.

How the values were obtained:
[1] = preparation of clofazimine carbomer gel with organic solvents; assay type: physicochemical; conditions: Carbomer 940 gel in water, pH 7.0
[2] = blood concentration after topical application in minipigs; assay type: in vivo, Bama minipigs
Description: Studies were performed to evaluate the blood concentration-time curve after topical application of Formulations 10-12 (clofazimine 0.01%, 0.03% and 0.1%) in Bama minipigs. 24 Bama minipigs (12 male and 12 female) were randomly divided into 4 groups (n=6), three groups received a single topical application of Formulations 10-12 (clofazimine 0.01%, 0.03% and 0.1%). […] In above 4 groups, Formulations 10-12 were applicated to 5% body surface area of Bama minipigs, that is, 1.5 mg ointment/cm^2 (corresponding to 0.15, 0.45, 1.5 μg API/cm^2 respectively). […] A validated LC-MS/MS method was used to determine the concentration of clofazimine in plasma and the pharmacokinetic parameters were calculated (the standard curve range of clofazimine is 0.0100˜10.0 ng/mL).

[3] = tested on: imiquimod-induced psoriasis like mouse model; test: imiquimod-induced psoriasis like mouse model, PASI method; assay type: in vivo, C57BL/6J mice; conditions: Formulations 1-3, topical
Text: Fifty C57BL/6J mice were random divided into 5 groups, naïve group, model group, Formulation 1-3 groups. All mice were shaved on the back. Naïve group was the negative group and as the blank control. The other four groups were locally applied with 5% imiquimod cream (sold under the tradename Aldara®) once a day for a week. […] In the last three days, the changes of skin lesions were observed and evaluated by PASI method. PASI method: the scores of erythema, scale and infiltration thickening in the skin lesions were scored respectively, and the sum of the three scores was the total score. PASI scoring standard: 0, none; 1, mild; 2, moderate; 3, severe; 4, extremely severe.

[4] = Solubility of clofazimine in fatty acids; assay type: physicochemical; conditions: fatty acid, 25 °C

Q: With CC(C)/N=c1\cc2n(-c3ccc(Cl)cc3)c3ccccc3nc-2cc1Nc1ccc(Cl)cc1 [Clofazimine, N,5-bis(4-chlorophenyl)-3-propan-2-ylimino phenazin-2-amine] as the compound, how does the “outcome of gel preparation” value ([1]; solvent Laurocapram) read?
A: formation of separated layers

Q: And the “outcome of gel preparation” value ([1]; solvent Propylene glycol)?
A: clofazimine precipitation

Q: And the clofazimine in plasma ([2]; repeated dose (0.03%, bid, 9 applications))?
A: a very low level of clofazimine could be detected in plasma

Q: And the clofazimine in plasma ([2]; single dose groups, majority of the samples)?
A: no clofazimine was detectable

Q: And the clofazimine in plasma ([2]; single dose groups, minority of samples in the 0.01% and 0.1% groups, 1.5 mg ointment/cm^2, 5% body surface area)?
A: very low level of clofazimine (close to the detection limit of the instrument)

Q: What about the “gender difference in clofazimine absorption” value ([2]; topical, male and female) of the same compound?
A: No significant gender difference

Q: What about the “treatment effect on the imiquimod-induced psoriasis like mouse model” value [3] of the same compound?
A: confirmed the treatment effect

Q: And the solubility ([4]; oil or lipid, Heptanoic acid)?
A: 78.3 mg/mL (≈ 165 mM)

Q: What about the solubility ([4]; oil or lipid, Hexanoic acid) of the same compound?
A: 80.7 mg/mL (≈ 170 mM)

Q: What about the solubility ([4]; oil or lipid, Linoleic acid) of the same compound?
A: 90.2 mg/mL (≈ 191 mM)

Q: What about the solubility ([4]; oil or lipid, Octanoic acid) of the same compound?
A: 56.3 mg/mL (≈ 119 mM)

Q: What about the solubility ([4]; oil or lipid, Oleic acid) of the same compound?
A: 106 mg/mL (≈ 223 mM)

Q: And the solubility ([4]; organic solvent or mixture, Acetic acid)?
A: 30.2 mg/mL (≈ 63.8 mM)

Q: And the solubility ([4]; organic solvent or mixture, Butyric acid)?
A: 49.2 mg/mL (≈ 104 mM)

Q: What about the solubility ([4]; organic solvent or mixture, Isovaleric acid) of the same compound?
A: 58.6 mg/mL (≈ 124 mM)

Q: And the solubility ([4]; organic solvent or mixture, Propionic acid)?
A: 28.2 mg/mL (≈ 59.7 mM)
